“And” between values parts separate entries of the source, which are not always exact repeats. Equal entries are not always repeated. The source made the active and inactive calls.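 The calls were made as follows: active = fitted AC50 no higher than twice the top valid dose tested for that sample; inconclusive = flat curve between -30 and -70% activity, or poor fit; inactive = the rest.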
Target: PglD UDP-4-amino-sugar N-acetyltransferase (Campylobacter jejuni)
Assay: PglD acetyltransferase inhibitors, dose response, biochemical, DTNB absorbance, dry powder samples, set 5 (AID 743125)
Conditions: purified PglD, DTNB absorbance 412 nm, CoA release

Compound	AC50	other results
Cc1c(C(=O)O)sc2nc(/C=C/c3cccc(O)c3)[nH]c(=O)c12	27.6 µM and 3.61 µM	–
Cc1c(C(=O)O)sc2nc(/C=C/c3cccc(N)c3)[nH]c(=O)c12	16.9 µM	–
Cc1c(C(=O)O)sc2nc(/C=C/c3cccc(=O)[nH]3)[nH]c(=O)c12	4.69 µM	–
Cc1c(C(=O)O)sc2nc(/C=C/c3cccc(N4CCOCC4)n3)[nH]c(=O)c12	> 20 µM (inactive)	–
Cc1c(C(=O)O)sc2nc(/C=C/c3cccc(OC(F)(F)F)c3)[nH]c(=O)c12	> 39 µM (inactive)	–
Cc1c(C(=O)O)sc2nc(/C=C/c3cccc([N+](=O)[O-])c3)[nH]c(=O)c12	> 39 µM (inactive)	–
Cc1c(C(=O)O)sc2nc(/C=C/c3cccc(N4CCNCC4)c3)[nH]c(=O)c12	–	activity change, negative = inhibition (at 38 µM (top of the series)): inactive
COc1cccc(/C=C/c2nc3sc(C(=O)O)c(C)c3c(=O)[nH]2)c1	11.5 µM	–
Cc1c(C(=O)O)sc2nc(/C=C/c3ccccc3O)[nH]c(=O)c12	24.9 µM	–
Cc1c(C(=O)O)sc2nc(/C=C/c3cccnc3N)[nH]c(=O)c12	–	activity change, negative = inhibition (at 10 µM (top of the series)): inactive
Cc1c(C(=O)O)sc2nc(/C=C/c3ccccn3)[nH]c(=O)c12	7.09 µM	–
Cc1c(C(=O)O)sc2nc(/C=C/c3ccc(O)cn3)[nH]c(=O)c12	–	activity change, negative = inhibition (at 1 µM (top of the series)): inactive
Cc1c(C(=O)O)sc2nc(/C=C/c3ccc4[nH]ccc4n3)[nH]c(=O)c12	7 µM	–
